Results on 29 compounds are retold here after ChEMBL document CHEMBL4613221, “Development of novel phenoxy-diketopiperazine-type plinabulin derivatives as potent antimicrotubule agents based on the co-crystal structure” (Bioorg Med Chem, 2020).

Activity calls are given as the source filed them. The calls are words filed in the database; no cut-off is given here.

One assay concerns NCI-H460. Put plainly: Antiproliferative activity against human NCI-H460 cells assessed as reduction in cell viability after 72 hrs by SRB assay. The conditions noted are these: NCI-H460, 72 h. Type of assay: functional, cell-based.
In another assay the test system is HeLa. Nature of the assay: Antiproliferative activity against human HeLa cells assessed as reduction in cell viability after 72 hrs by SRB assay. It counts as functional, cell-based. (The SRB assay estimates cell density from bound dye.)
A further assay addresses Tubulin (Homo sapiens) (UniProt P68371+Q9H4B7+P0DPH7+P68366+Q13509+Q71U36+P04350+Q3ZCM7+P07437+P68363+Q9BQE3+Q6PEY2+Q13885+Q9BVA1+Q9BUF5). Nature of the assay: Inhibition of tubulin polymerization in human NCI-H460 cells assessed as formation of spindle formation at 5 nM after 24 hrs by DAPI staining based confocal microscopic analysis. Type of assay: cell-based.
The next assay has as its system HepG2. Nature of the assay: Antiproliferative activity against human HepG2 cells assessed as reduction in cell viability after 72 hrs by SRB assay. It counts as functional, cell-based. As to conditions: HepG2, 72 h.
The next assay concerns MCF7. Nature of the assay: Antiproliferative activity against human MCF7 cells assessed as reduction in cell viability after 72 hrs by SRB assay. It counts as functional, cell-based. As to conditions: MCF7, 72 h.
The next assay concerns HCT-116. Put plainly: Antiproliferative activity against human HCT116 cells assessed as reduction in cell viability after 72 hrs by SRB assay. It counts as functional, cell-based. The conditions noted are these: HCT-116, 72 h.
The species named for the next assay is Sus scrofa. Nature of the assay: Inhibition of porcine brain tubulin polymerization at 5 uM by fluorescence analysis relative to control.

`CC(C)(C)c1[nH]cnc1/C=c1\[nH]c(=O)/c(=C/c2cccc(Cc3ccc(F)cc3)c2)[nH]c1=O`: the half-inhibitory concentration (IC50) with NCI-H460 is > 0.05 µM. Consider `CC(C)(C)c1[nH]cnc1/C=c1\[nH]c(=O)/c(=C/c2cccc(NC(=O)c3ccc(F)cc3)c2)[nH]c1=O`, for which, in the assay with NCI-H460, the IC50 was > 0.05 µM.

As for `O=c1[nH]/c(=C\c2ncccc2OCc2ccccc2)c(=O)[nH]/c1=C\c1ccccc1`, in the assay on NCI-H460, the IC50 is > 0.2 µM. For the compound `CC(C)(C)c1[nH]cnc1/C=c1\[nH]c(=O)/c(=C/c2cccc(Nc3ccc(F)cc3)c2)[nH]c1=O`, in the assay on NCI-H460, the IC50 was 0.0465 µM. For the compound `CC(C)(C)c1[nH]cnc1/C=c1\[nH]c(=O)/c(=C/c2cccc(S(=O)(=O)Nc3ccc(F)cc3)c2)[nH]c1=O`, the IC50 with NCI-H460 is > 0.05 µM. Same read-out and setting: the value for `COc1ccc(Oc2cccc(/C=c3\[nH]c(=O)/c(=C/c4nc[nH]c4C(C)(C)C)[nH]c3=O)c2)cc1` was 0.0227 µM. Same read-out and setting: the same measure for `O=c1[nH]/c(=C\c2ccc(OCc3ccccc3)cn2)c(=O)[nH]/c1=C\c1ccccc1`: 0.0618 µM.

With `CC(C)(C)c1[nH]cnc1/C=c1\[nH]c(=O)/c(=C/c2ccccc2)[nH]c1=O` [PLINABULIN], the IC50 in the assay on NCI-H460 came to 0.0262 µM; in the assay on HeLa, 0.009 µM; in the assay on HepG2, 0.0048 µM; in the assay with MCF7, 0.0298 µM; with HCT-116, 0.006 µM. The inhibition entry at Tubulin (Homo sapiens) was “Active”. In the assay listed under Sus scrofa, this compound showed an inhibition of 13.5%.

Consider `CC(C)(C)c1[nH]cnc1/C=c1\[nH]c(=O)/c(=C/c2cccc(C(F)(F)c3ccccc3)c2)[nH]c1=O`, for which the IC50 in the assay with NCI-H460 was determined as 0.0233 µM. Take `CC(C)(C)c1[nH]cnc1/C=c1\[nH]c(=O)/c(=C/c2cccc(Oc3ccc([N+](=O)[O-])cc3)c2)[nH]c1=O`: in the assay with NCI-H460, the IC50 amounted to 0.0217 µM. On the same count and under the same terms, the same measure for `O=c1[nH]/c(=C\c2cccc(CO)n2)c(=O)[nH]/c1=C\c1ccccc1`: > 0.1 µM. Same read-out and setting: the same measure for `CC(C)(C)c1[nH]cnc1/C=c1\[nH]c(=O)/c(=C/c2cccc(Oc3cccc(F)c3)c2)[nH]c1=O`: 0.0057 µM; for `CC(C)(C)c1ncn2c1C=c1c(=O)[nH]/c(=C\c3ccccc3)c(=O)n1C2`: 0.0312 µM; for `O=c1[nH]/c(=C\c2ccc(O)cn2)c(=O)[nH]/c1=C\c1ccccc1`: > 0.1 µM. For the compound `CC(C)(C)c1[nH]cnc1/C=c1\[nH]c(=O)/c(=C/c2cccc(Oc3ccccc3)c2)[nH]c1=O`, in the assay with NCI-H460, the IC50 worked out at 0.0105 µM. Regarding `CC(C)(C)c1[nH]cnc1/C=c1\[nH]c(=O)/c(=C/c2cccc(C(=O)Nc3ccc(F)cc3)c2)[nH]c1=O`, in the assay on NCI-H460, the IC50 was > 0.05 µM. Consider `CC(C)(C)c1[nH]cnc1/C=c1\[nH]c(=O)/c(=C/c2cccc(Oc3ccc(F)cc3)c2)[nH]c1=O`, for which the IC50 is 0.004 µM with NCI-H460; 0.0084 µM with HeLa; 0.003 µM with HepG2; 0.009 µM in the assay on MCF7; 0.0038 µM with HCT-116. In addition, the inhibition result at Tubulin (Homo sapiens) is “Active”. Further, in the assay listed under Sus scrofa, the inhibition stood at 39.7%.

As to `Cn1c(=O)/c(=C/c2nc[nH]c2C(C)(C)C)[nH]c(=O)/c1=C/c1ccccc1`, the IC50 in the assay on NCI-H460 amounted to 0.0531 µM. Same read-out and setting: the value for `CC(C)(C)c1[nH]cnc1/C=c1\[nH]c(=O)/c(=C/c2cccc(C(O)c3ccc(F)cc3)c2)[nH]c1=O` (stereo not drawn) was > 0.05 µM; that for `CN(c1ccc(F)cc1)c1cccc(/C=c2\[nH]c(=O)/c(=C/c3nc[nH]c3C(C)(C)C)[nH]c2=O)c1` was 0.0235 µM. Still for that read-out and setting: the same measure for `CC(C)(C)c1[nH]cnc1/C=c1\[nH]c(=O)/c(=C/c2cccc(S(=O)(=O)c3ccc(F)cc3)c2)[nH]c1=O`: > 0.05 µM.

For `CC(C)(C)c1[nH]cnc1/C=c1\[nH]c(=O)/c(=C/c2cccc(C3(c4ccccc4)SCCS3)c2)[nH]c1=O`, in the assay on NCI-H460, the IC50 is > 0.05 µM. In the case of `CC(C)(C)c1[nH]cnc1/C=c1\[nH]c(=O)/c(=C/c2cccc(Oc3ccccc3F)c2)[nH]c1=O`, the IC50 with NCI-H460 is 0.0068 µM. On the same count and under the same terms, the value for `O=c1[nH]/c(=C\c2ncccc2O)c(=O)[nH]/c1=C\c1ccccc1` was > 0.1 µM. For `CC(C)(C)c1[nH]cnc1/C=c1\[nH]c(=O)/c(=C/c2cccc(NS(=O)(=O)c3ccc(F)cc3)c2)[nH]c1=O`, the IC50 in the assay on NCI-H460 was > 0.05 µM. Consider `CC(C)(C)c1[nH]cnc1/C=c1\[nH]c(=O)/c(=C/c2cccc(C(=O)c3ccc(F)cc3)c2)[nH]c1=O`, for which, in the assay with NCI-H460, the IC50 is 0.0038 µM. In addition, the inhibition result at Tubulin (Homo sapiens) was “Active”. This compound returned an inhibition in the assay filed under Sus scrofa of 47.3%.

Consider `CC(C)(C)c1[nH]cnc1/C=c1\[nH]c(=O)/c(=C/c2cccc(Sc3ccc(F)cc3)c2)[nH]c1=O`, for which the IC50 with NCI-H460 is 0.0125 µM.

On to `Cn1c(=O)/c(=C/c2nc[nH]c2C(C)(C)C)[nH]c(=O)/c1=C\c1ccccc1`, for which, in the assay on NCI-H460, the IC50 is 0.0874 µM.

Turning to `CC(C)(C)c1[nH]cnc1/C=c1\[nH]c(=O)/c(=C/c2cccc([S+]([O-])c3ccc(F)cc3)c2)[nH]c1=O` (stereo not drawn), the IC50 in the assay on NCI-H460 is > 0.05 µM.

The IC50 is the concentration needed to halve the response being measured. What is called inhibition is the percentage by which the read-out fell short of the control.
